Reference: patent US8101596B2, “Loxapine analogs and methods of use thereof” (Hypnion Inc., priority 2004, dated 2012)

Key:
[1] = tested on: male Wistar rats; assay: Sleep-wakefulness monitoring (SCORE-2000) in rats; assay type: in vivo, rat; details: CT-18
Description: Food and water were available ad libitum.
Treatments were administered orally as a bolus.
A parallel group study design was employed.

[2] = tested on: monkey cryopreserved hepatocytes; assay: Metabolism in monkey cryopreserved hepatocytes; assay type: in vitro ADME; details: primate hepatocytes, 1 μM, in % (unit assumed)
Description: (§1) Metabolism of test articles in monkey and human cryopreserved hepatocytes was assayed as follows:
(§2) Sample is diluted with DMSO, to prepare 100 μM and 10 μM stocks. 0.1% formic acid in acetonitrile is prepared by the addition of 1 mL formic acid per 1 L acetonitrile (store RT for 3 months). 10 minute, 60 and 120 minute 96 well quenching plates are prepared with 150 μL acetonitrile+0.1% formic acid in each well. Store on ice or refrigerated.
(§3) Next, hepatocytes are thawed and 100 μL of cell suspension is placed into a microfuge tube with 100 μL 0.4% Trypan Blue solution and gently mix by inversion. A small amount of the stained cell suspension (approximately 15 μL) is placed into a clean hemacytometer with a coverslip. The hemacytometer is placed onto the stage of the microscope and the focus and power are adjusted until a single counting square fills the field. The number of cells in the four outside corner subdivided squares of the hemacytometer are counted. Viable cells are opalescent, round, and pale with a darker outline. Non-viable cells are dark, opaque blue.
(§4) 198 μL of hepatocytes are transferred to relevant wells on dosing plate.
(§5) Plates are preincubated for at least 15 min. Reactions are started 2 μL of appropriate test compound dilution from dosing plate. […]

[3] = tested on: human cryopreserved hepatocytes; assay: Metabolism in human cryopreserved hepatocytes; assay type: in vitro ADME; details: 1 μM, in % (unit assumed)
Description: as §1, §2, §3, §4, §5

[4] = molecular target: T1, human recombinant M1 expressed in CHO cells (Homo sapiens, UniProt P11229); assay: M1 muscarinic receptor binding assay
T1 construct: purchased PerkinElmer, Inc., Wellesley, Mass; host or cells: CHO cells
T1 sequence (P11229 1-460): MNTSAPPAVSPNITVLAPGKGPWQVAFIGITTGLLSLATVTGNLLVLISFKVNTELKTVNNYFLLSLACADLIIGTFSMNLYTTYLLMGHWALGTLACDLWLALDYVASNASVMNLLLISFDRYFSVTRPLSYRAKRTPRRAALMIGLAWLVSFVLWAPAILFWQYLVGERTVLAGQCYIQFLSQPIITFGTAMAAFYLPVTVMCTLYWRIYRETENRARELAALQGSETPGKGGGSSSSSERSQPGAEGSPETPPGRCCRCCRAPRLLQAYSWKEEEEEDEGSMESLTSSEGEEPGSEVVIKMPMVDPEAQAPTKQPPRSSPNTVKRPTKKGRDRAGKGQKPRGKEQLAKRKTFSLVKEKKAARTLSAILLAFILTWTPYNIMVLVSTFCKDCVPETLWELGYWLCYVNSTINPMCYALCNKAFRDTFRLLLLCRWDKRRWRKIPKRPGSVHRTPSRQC

[5] = molecular target: T2, human recombinant M3 expressed in CHO cells (Homo sapiens, UniProt P20309); assay: M3 muscarinic receptor binding assay
T2 construct: purchased PerkinElmer, Inc., Wellesley, Mass; host or cells: CHO cells

[6] = molecular target: T3, human recombinant M2 expressed in CHO cells (Homo sapiens, UniProt P08172); assay: M2 muscarinic receptor binding assay
T3 construct: purchased PerkinElmer, Inc., Wellesley, Mass; host or cells: CHO cells
T3 sequence (P08172 1-466): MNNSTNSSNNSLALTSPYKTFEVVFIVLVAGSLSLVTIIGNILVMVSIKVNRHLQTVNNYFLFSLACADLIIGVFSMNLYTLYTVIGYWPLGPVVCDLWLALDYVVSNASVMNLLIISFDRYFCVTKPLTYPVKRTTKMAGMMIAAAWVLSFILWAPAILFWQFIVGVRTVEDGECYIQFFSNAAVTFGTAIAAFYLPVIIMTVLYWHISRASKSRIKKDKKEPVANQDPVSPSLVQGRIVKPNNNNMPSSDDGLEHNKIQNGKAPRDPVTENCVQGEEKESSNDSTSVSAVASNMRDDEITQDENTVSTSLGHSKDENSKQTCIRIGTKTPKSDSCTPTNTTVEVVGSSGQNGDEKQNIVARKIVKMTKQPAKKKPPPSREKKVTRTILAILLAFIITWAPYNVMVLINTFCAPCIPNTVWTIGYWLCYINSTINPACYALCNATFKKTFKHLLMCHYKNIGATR

[7] = molecular target: T4, H1 histamine receptor (Bos taurus, UniProt P30546); details: reference compounds; read-out: Ki of reference compounds in H1 binding assay (unit inferred); cited from earlier work
T4 construct: the receptors were obtained from bovine cerebellar membrane tissue; from tissue; host or cells: bovine cerebellar membranes
T4 sequence (P30546 whole entry): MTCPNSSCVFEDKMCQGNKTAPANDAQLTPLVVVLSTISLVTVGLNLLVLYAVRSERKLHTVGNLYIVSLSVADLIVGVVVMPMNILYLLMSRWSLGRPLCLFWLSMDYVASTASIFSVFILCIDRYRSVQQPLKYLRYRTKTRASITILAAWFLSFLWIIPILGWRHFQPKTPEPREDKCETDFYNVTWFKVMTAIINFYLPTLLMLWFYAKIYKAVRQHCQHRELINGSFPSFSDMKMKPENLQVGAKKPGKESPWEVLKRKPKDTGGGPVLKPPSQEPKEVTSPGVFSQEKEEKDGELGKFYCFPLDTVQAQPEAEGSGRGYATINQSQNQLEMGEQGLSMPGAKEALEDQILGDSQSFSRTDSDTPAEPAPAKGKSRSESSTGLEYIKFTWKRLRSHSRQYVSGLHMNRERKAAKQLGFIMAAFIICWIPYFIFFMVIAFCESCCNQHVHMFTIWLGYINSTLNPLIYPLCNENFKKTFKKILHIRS

T2 sequence (P20309 whole entry): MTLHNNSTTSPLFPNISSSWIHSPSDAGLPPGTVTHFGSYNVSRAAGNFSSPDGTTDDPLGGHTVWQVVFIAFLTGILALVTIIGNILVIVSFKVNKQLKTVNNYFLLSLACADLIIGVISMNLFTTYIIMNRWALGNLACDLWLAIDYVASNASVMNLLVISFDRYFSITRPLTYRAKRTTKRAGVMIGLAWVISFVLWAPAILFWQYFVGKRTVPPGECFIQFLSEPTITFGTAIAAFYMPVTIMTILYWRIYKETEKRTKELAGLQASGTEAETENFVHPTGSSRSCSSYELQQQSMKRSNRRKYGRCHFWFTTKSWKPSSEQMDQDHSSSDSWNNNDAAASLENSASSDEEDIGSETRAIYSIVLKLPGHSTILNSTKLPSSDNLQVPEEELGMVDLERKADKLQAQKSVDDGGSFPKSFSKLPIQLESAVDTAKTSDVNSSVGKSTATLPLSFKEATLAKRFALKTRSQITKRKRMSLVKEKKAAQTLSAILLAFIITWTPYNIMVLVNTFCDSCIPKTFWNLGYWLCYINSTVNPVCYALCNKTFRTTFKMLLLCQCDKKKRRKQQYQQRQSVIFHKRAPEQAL

Compound | LUSB (longest uninterrupted sleep bout) ([1]; 10 mg/kg oral) [min] | further results
CC(C)(CN1CCN(C2=Nc3ccccc3Oc3ccccc32)CC1)C(=O)O [Compound 1] | 19.7 ± 6.7 | LUSB (longest uninterrupted sleep bout) ([1]; 1 mg/kg oral): 6.0 ± 2.3 min; LUSB (longest uninterrupted sleep bout) ([1]; 3 mg/kg oral): 18.8 ± 3.0 min
CC(C)(CN1CCN(C2=Nc3ccccc3Oc3ccc(Cl)cc32)CC1)C(=O)O [Compound 5] | 8.7 ± 3.3 | LUSB (longest uninterrupted sleep bout) ([1]; 3 mg/kg oral): 13.5 ± 4.0 min; remaining 120 minutes after treatment [2]: 75.105; remaining 120 minutes after treatment [3]: 90.405
CC(C)(CCN1CCN(C2=Nc3ccccc3Oc3ccc(Cl)cc32)CC1)C(=O)O [Compound 6] | – | Ki [4]: > 10 µM; Ki [5]: > 10 µM; Ki [6]: > 10 µM
CC(C)(CN1CCN(C2=Nc3ccccc3Oc3ccc(Br)cc32)CC1)C(=O)O [Compound 8] | 16.7 ± 3.0 | –
COc1ccc2c(c1)C(N1CCN(CC(C)(C)C(=O)O)CC1)=Nc1ccccc1O2 [Compound 12] | 18.1 ± 2.1 | LUSB (longest uninterrupted sleep bout) ([1]; 1 mg/kg oral): 7.7 ± 3.2 min; LUSB (longest uninterrupted sleep bout) ([1]; 3 mg/kg oral): 8.3 ± 3.0 min
CC(C)(CN1CCN(C2=Nc3cc(Br)ccc3Oc3ccccc32)CC1)C(=O)O [Compound 17] | 5.0 ± 2.0 | –
Cc1ccc2c(c1)N=C(N1CCN(CC(C)(C)C(=O)O)CC1)c1ccccc1O2 [Compound 19] | 11.7 ± 4.0 | LUSB (longest uninterrupted sleep bout) ([1]; 3 mg/kg oral): 18.6 ± 3.3 min
Cc1ccc2c(c1)N=C(N1CCN(CC(C)(C)C(=O)O)CC1)c1cc(C)ccc1O2 [Compound 20] | 4.7 ± 2.3 | –
CC(C)(CN1CCN(C2=Nc3ccccc3Oc3ccccc32)CC1)C(=O)NS(C)(=O)=O [Compound 40] | 7.6 ± 4.2 | LUSB (longest uninterrupted sleep bout) ([1]; 30 mg/kg oral): 16.4 ± 2.9 min
COc1ccc2c(c1)N=C(N1CCN(CC(C)(C)C(=O)O)CC1)c1ccc(OC)cc1O2 [Compound 42] | 4.8 ± 2.7 | –
Cc1ccc2c(c1)Oc1ccccc1N=C2N1CCN(CC(C)(C)C(=O)O)CC1 [Compound 46] | 11.1 ± 3.7 | LUSB (longest uninterrupted sleep bout) ([1]; 1 mg/kg oral): 4.1 ± 1.6 min; LUSB (longest uninterrupted sleep bout) ([1]; 3 mg/kg oral): 17 ± 4.4 min
Cc1ccc2c(c1)C(N1CCN(CC(C)(C)C(=O)O)CC1)=Nc1cc(Br)ccc1O2 [Compound 50] | 3.4 ± 2.6 | –
COc1ccc2c(c1)C(N1CCN(CC(C)(C)C(=O)O)CC1)=Nc1cc(Br)ccc1O2 [Compound 51] | 10.1 ± 3.6 | –
Cc1ccc2c(c1)N=C(N1CCN(CC(C)(C)C(=O)O)CC1)c1ccc(C)cc1O2 [Compound 52] | 15.9 ± 2.3 | –
COc1ccc2c(c1)C(N1CCN(CC(C)(C)C(=O)O)CC1)=Nc1cc(C)ccc1O2 [Compound 54] | 11.1 ± 2.9 | –
COc1ccc2c(c1)N=C(N1CCN(CC(C)(C)C(=O)O)CC1)c1cc(C)ccc1O2 [Compound 56] | 11.7 ± 2.3 | –
CN(C)CCCSC(=N)N [dimaprit] | – | Ki [7]: > 110 µM
